Columns and labels:
Assay in all cases: cells
SNB-19 = type: functional; conditions: Homo sapiens, time 48 hrs
Description: Cytostatic activity against human SNB-19 cells assessed as total growth inhibition measured after 48 hrs by sulforhodamine B assay

A549 [1] = conditions: Homo sapiens, A549, 48 h, read-out: LC50
Description: Cytotoxicity activity against human A549 cells assessed as reduction in cell growth measured after 48 hrs by sulforhodamine B assay

T47D [2] = type: functional; conditions: Homo sapiens, time 48 hrs
Description: Cytostatic activity against human T47D cells assessed as total growth inhibition measured after 48 hrs by sulforhodamine B assay

SK-MEL-28 = type: functional; conditions: Homo sapiens, time 48 hrs
Description: Growth inhibition of human SK-MEL-28 cells measured after 48 hrs by sulforhodamine B assay

MOLT-4 = conditions: Homo sapiens, MOLT-4, 48 h, read-out: LC50
Description: Cytotoxicity activity against human MOLT-4 cells assessed as reduction in cell growth measured after 48 hrs by sulforhodamine B assay

RPMI-8226 [3] = type: functional; conditions: Homo sapiens, time 48 hrs
Description: Growth inhibition of human RPMI-8226 cells measured after 48 hrs by sulforhodamine B assay

SF-268 = type: functional; conditions: Homo sapiens, time 48 hrs
Description: Cytostatic activity against human SF-268 cells assessed as total growth inhibition measured after 48 hrs by sulforhodamine B assay

HL-60(TB) [4] = type: functional; conditions: Homo sapiens, time 48 hrs
Description: Growth inhibition of human HL-60(TB) cells measured after 48 hrs by sulforhodamine B assay

SF-539 [5] = conditions: Homo sapiens, SF-539, 48 h, read-out: LC50
Description: Cytotoxicity activity against human SF-539 cells assessed as reduction in cell growth measured after 48 hrs by sulforhodamine B assay

HCC 2998 [6] = type: functional; conditions: Homo sapiens, time 48 hrs
Description: Growth inhibition of human HCC 2998 cells measured after 48 hrs by sulforhodamine B assay

M14 = type: functional; conditions: Homo sapiens, time 48 hrs
Description: Cytostatic activity against human M14 cells assessed as total growth inhibition measured after 48 hrs by sulforhodamine B assay

UO-31 = conditions: Homo sapiens, UO-31, 48 h, read-out: LC50
Description: Cytotoxicity activity against human UO-31 cells assessed as reduction in cell growth measured after 48 hrs by sulforhodamine B assay

MCF7 = type: functional; conditions: Homo sapiens, time 48 hrs
Description: Growth inhibition of human MCF7 cells measured after 48 hrs by sulforhodamine B assay

ACHN = conditions: Homo sapiens, 48 h, read-out: LC50
Description: Cytotoxicity activity against human ACHN cells assessed as reduction in cell growth measured after 48 hrs by sulforhodamine B assay

HL-60(TB) [7] = type: functional; conditions: Homo sapiens, time 48 hrs; remark: listed apart in the source
Description: Cytostatic activity against human HL-60(TB) cells assessed as total growth inhibition measured after 48 hrs by sulforhodamine B assay

RPMI-8226 [8] = type: functional; conditions: Homo sapiens, time 48 hrs; remark: listed apart in the source
Description: Cytostatic activity against human RPMI-8226 cells assessed as total growth inhibition measured after 48 hrs by sulforhodamine B assay

T47D [9] = conditions: Homo sapiens, 48 h, read-out: LC50
Description: Cytotoxicity activity against human T47D cells assessed as reduction in cell growth measured after 48 hrs by sulforhodamine B assay

HOP-92 [10] = conditions: Homo sapiens, HOP-92, 48 h, read-out: LC50
Description: Cytotoxicity activity against human HOP-92 cells assessed as reduction in cell growth measured after 48 hrs by sulforhodamine B assay

DU-145 = type: functional; conditions: Homo sapiens, time 48 hrs
Description: Cytostatic activity against human DU-145 cells assessed as total growth inhibition measured after 48 hrs by sulforhodamine B assay

MDA-MB-468 = conditions: Homo sapiens, MDA-MB-468, 48 h, read-out: LC50
Description: Cytotoxicity activity against human MDA-MB-468 cells assessed as reduction in cell growth measured after 48 hrs by sulforhodamine B assay

NCI-H23 [11] = type: functional; conditions: Homo sapiens, time 48 hrs
Description: Cytostatic activity against human NCI-H23 cells assessed as total growth inhibition measured after 48 hrs by sulforhodamine B assay

U-251 [12] = type: functional; conditions: Homo sapiens, time 48 hrs
Description: Cytostatic activity against human U-251 cells assessed as total growth inhibition measured after 48 hrs by sulforhodamine B assay

UACC-257 [13] = type: functional; conditions: Homo sapiens, time 48 hrs
Description: Growth inhibition of human UACC-257 cells measured after 48 hrs by sulforhodamine B assay

HCT-116 = type: functional; conditions: Homo sapiens, time 48 hrs
Description: Cytostatic activity against human HCT-116 cells assessed as total growth inhibition measured after 48 hrs by sulforhodamine B assay

HCT-15 [14] = conditions: Homo sapiens, HCT-15, 48 h, read-out: LC50
Description: Cytotoxicity activity against human HCT-15 cells assessed as reduction in cell growth measured after 48 hrs by sulforhodamine B assay

CCRF-CEM = conditions: Homo sapiens, 48 h, read-out: LC50
Description: Cytotoxicity activity against human CCRF-CEM cells assessed as reduction in cell growth measured after 48 hrs by sulforhodamine B assay

SF-539 [15] = type: functional; conditions: Homo sapiens, time 48 hrs
Description: Growth inhibition of human SF-539 cells measured after 48 hrs by sulforhodamine B assay

A498 [16] = type: functional; conditions: Homo sapiens, time 48 hrs
Description: Growth inhibition of human A498 cells measured after 48 hrs by sulforhodamine B assay

KM12 [17] = type: functional; conditions: Homo sapiens, time 48 hrs
Description: Growth inhibition of human KM12 cells measured after 48 hrs by sulforhodamine B assay

OVCAR-8 [18] = type: functional; conditions: Homo sapiens, time 48 hrs
Description: Cytostatic activity against human OVCAR-8 cells assessed as total growth inhibition measured after 48 hrs by sulforhodamine B assay

SK-MEL-2 [19] = type: functional; conditions: Homo sapiens, time 48 hrs
Description: Cytostatic activity against human SK-MEL-2 cells assessed as total growth inhibition measured after 48 hrs by sulforhodamine B assay

PC-3 = type: functional; conditions: Homo sapiens, time 48 hrs
Description: Growth inhibition of human PC-3 cells measured after 48 hrs by sulforhodamine B assay

K562 = type: functional; conditions: Homo sapiens, time 48 hrs
Description: Growth inhibition of human K562 cells measured after 48 hrs by sulforhodamine B assay

UACC-62 [20] = conditions: Homo sapiens, UACC-62, 48 h, read-out: LC50
Description: Cytotoxicity activity against human UACC-62 cells assessed as reduction in cell growth measured after 48 hrs by sulforhodamine B assay

SN12C = conditions: Homo sapiens, 48 h, read-out: LC50
Description: Cytotoxicity activity against human SN12C cells assessed as reduction in cell growth measured after 48 hrs by sulforhodamine B assay

HCT-15 [21] = type: functional; conditions: Homo sapiens, time 48 hrs
Description: Cytostatic activity against human HCT-15 cells assessed as total growth inhibition measured after 48 hrs by sulforhodamine B assay

SK-OV-3 [22] = type: functional; conditions: Homo sapiens, time 48 hrs
Description: Growth inhibition of human SK-OV-3 cells measured after 48 hrs by sulforhodamine B assay

SK-OV-3 [23] = type: functional; conditions: Homo sapiens, time 48 hrs; remark: listed apart in the source
Description: Cytostatic activity against human SK-OV-3 cells assessed as total growth inhibition measured after 48 hrs by sulforhodamine B assay

A549 [24] = type: functional; conditions: Homo sapiens, time 48 hrs
Description: Growth inhibition of human A549 cells measured after 48 hrs by sulforhodamine B assay

OVCAR-5 = type: functional; conditions: Homo sapiens, time 48 hrs
Description: Cytostatic activity against human OVCAR-5 cells assessed as total growth inhibition measured after 48 hrs by sulforhodamine B assay

COLO 205 = type: functional; conditions: Homo sapiens, time 48 hrs
Description: Cytostatic activity against human COLO 205 cells assessed as total growth inhibition measured after 48 hrs by sulforhodamine B assay

SNB-75 [25] = type: functional; conditions: Homo sapiens, time 48 hrs
Description: Growth inhibition of human SNB-75 cells measured after 48 hrs by sulforhodamine B assay

NCI-H23 [26] = type: functional; conditions: Homo sapiens, time 48 hrs; remark: listed apart in the source
Description: Growth inhibition of human NCI-H23 cells measured after 48 hrs by sulforhodamine B assay

IGROV-1 = conditions: Homo sapiens, IGROV-1, 48 h, read-out: LC50
Description: Cytotoxicity activity against human IGROV-1 cells assessed as reduction in cell growth measured after 48 hrs by sulforhodamine B assay

HOP-92 [27] = type: functional; conditions: Homo sapiens, time 48 hrs
Description: Cytostatic activity against human HOP-92 cells assessed as total growth inhibition measured after 48 hrs by sulforhodamine B assay

SNB-75 [28] = conditions: Homo sapiens, SNB-75, 48 h, read-out: LC50
Description: Cytotoxicity activity against human SNB-75 cells assessed as reduction in cell growth measured after 48 hrs by sulforhodamine B assay

OVCAR-8 [29] = type: functional; conditions: Homo sapiens, time 48 hrs; remark: listed apart in the source
Description: Growth inhibition of human OVCAR-8 cells measured after 48 hrs by sulforhodamine B assay

KM12 [30] = type: functional; conditions: Homo sapiens, time 48 hrs; remark: listed apart in the source
Description: Cytostatic activity against human KM12 cells assessed as total growth inhibition measured after 48 hrs by sulforhodamine B assay

NCI-H522 [31] = type: functional; conditions: Homo sapiens, time 48 hrs
Description: Cytostatic activity against human NCI-H522 cells assessed as total growth inhibition measured after 48 hrs by sulforhodamine B assay

HCC 2998 [32] = type: functional; conditions: Homo sapiens, time 48 hrs; remark: listed apart in the source
Description: Cytostatic activity against human HCC 2998 cells assessed as total growth inhibition measured after 48 hrs by sulforhodamine B assay

UACC-62 [33] = type: functional; conditions: Homo sapiens, time 48 hrs
Description: Growth inhibition of human UACC-62 cells measured after 48 hrs by sulforhodamine B assay

SK-MEL-2 [34] = conditions: Homo sapiens, SK-MEL-2, 48 h, read-out: LC50
Description: Cytotoxicity activity against human SK-MEL-2 cells assessed as reduction in cell growth measured after 48 hrs by sulforhodamine B assay

U-251 [35] = type: functional; conditions: Homo sapiens, time 48 hrs; remark: listed apart in the source
Description: Growth inhibition of human U-251 cells measured after 48 hrs by sulforhodamine B assay

UACC-257 [36] = type: functional; conditions: Homo sapiens, time 48 hrs; remark: listed apart in the source
Description: Cytostatic activity against human UACC-257 cells assessed as total growth inhibition measured after 48 hrs by sulforhodamine B assay

HOP-62 = type: functional; conditions: Homo sapiens, time 48 hrs
Description: Cytostatic activity against human HOP-62 cells assessed as total growth inhibition measured after 48 hrs by sulforhodamine B assay

SK-MEL-5 = type: functional; conditions: Homo sapiens, time 48 hrs
Description: Cytostatic activity against human SK-MEL-5 cells assessed as total growth inhibition measured after 48 hrs by sulforhodamine B assay

MDA-MB-435 = type: functional; conditions: Homo sapiens, time 48 hrs
Description: Growth inhibition of human MDA-MB-435 cells measured after 48 hrs by sulforhodamine B assay

NCI-H23 [37] = conditions: Homo sapiens, NCI-H23, 48 h, read-out: LC50
Description: Cytotoxicity activity against human NCI-H23 cells assessed as reduction in cell growth measured after 48 hrs by sulforhodamine B assay

NCI-H522 [38] = conditions: Homo sapiens, NCI-H522, 48 h, read-out: LC50
Description: Cytotoxicity activity against human NCI-H522 cells assessed as reduction in cell growth measured after 48 hrs by sulforhodamine B assay

A498 [39] = conditions: Homo sapiens, A498, 48 h, read-out: LC50
Description: Cytotoxicity activity against human A498 cells assessed as reduction in cell growth measured after 48 hrs by sulforhodamine B assay

OVCAR-4 = conditions: Homo sapiens, OVCAR-4, 48 h, read-out: LC50
Description: Cytotoxicity activity against human OVCAR-4 cells assessed as reduction in cell growth measured after 48 hrs by sulforhodamine B assay

OVCAR-8 [40] = conditions: Homo sapiens, OVCAR-8, 48 h, read-out: LC50
Description: Cytotoxicity activity against human OVCAR-8 cells assessed as reduction in cell growth measured after 48 hrs by sulforhodamine B assay

## CCOC(=O)c1ccc(N/N=C/c2cn(-c3ccc(S(N)(=O)=O)cc3)nc2-c2ccc(C)cc2)cc1
SNB-19
  TGI: 28.1 µM
A549 [1]
  CC50: > 100 µM
T47D [2]
  TGI: > 100 µM
SK-MEL-28
  GI50: 4.5 µM
MOLT-4
  CC50: > 100 µM
RPMI-8226 [3]
  GI50: 3.24 µM
SF-268
  TGI: 34.2 µM
HL-60(TB) [4]
  GI50: 3.05 µM
SF-539 [5]
  CC50: 35 µM
HCC 2998 [6]
  GI50: 2.05 µM
M14
  TGI: 3.57 µM
UO-31
  CC50: > 100 µM
MCF7
  GI50: 2.44 µM
ACHN
  CC50: > 100 µM
HL-60(TB) [7]
  TGI: 14.1 µM
RPMI-8226 [8]
  TGI: 3.24 µM
T47D [9]
  CC50: > 100 µM
HOP-92 [10]
  CC50: > 100 µM
DU-145
  TGI: 24.4 µM
MDA-MB-468
  CC50: 99.3 µM
NCI-H23 [11]
  TGI: 3.26 µM
U-251 [12]
  TGI: > 100 µM
UACC-257 [13]
  GI50: 13.2 µM
HCT-116
  TGI: 10.6 µM
HCT-15 [14]
  CC50: 9.53 µM
CCRF-CEM
  CC50: > 100 µM
SF-539 [15]
  GI50: 2.55 µM
A498 [16]
  GI50: 7.62 µM
KM12 [17]
  GI50: 2.1 µM
OVCAR-8 [18]
  TGI: > 100 µM
SK-MEL-2 [19]
  TGI: 40.6 µM
PC-3
  GI50: 3.13 µM
K562
  GI50: 2.88 µM
UACC-62 [20]
  CC50: 59.8 µM
SN12C
  CC50: > 100 µM
HCT-15 [21]
  TGI: 4.23 µM
SK-OV-3 [22]
  GI50: 24.4 µM
SK-OV-3 [23]
  TGI: > 100 µM
A549 [24]
  GI50: 4.07 µM
OVCAR-5
  TGI: 20 µM
COLO 205
  TGI: 44.3 µM
SNB-75 [25]
  GI50: 10.1 µM
NCI-H23 [26]
  GI50: 3.26 µM
IGROV-1
  CC50: > 100 µM
HOP-92 [27]
  TGI: 2.79 µM
SNB-75 [28]
  CC50: > 100 µM
OVCAR-8 [29]
  GI50: 5.68 µM
KM12 [30]
  TGI: 4.59 µM
NCI-H522 [31]
  TGI: 2.07 µM
HCC 2998 [32]
  TGI: 4.23 µM
UACC-62 [33]
  GI50: 5.66 µM
SK-MEL-2 [34]
  CC50: > 100 µM
U-251 [35]
  GI50: 4.23 µM
UACC-257 [36]
  TGI: 37 µM
HOP-62
  TGI: 6.55 µM
SK-MEL-5
  TGI: 10.2 µM
MDA-MB-435
  GI50: 2.87 µM
NCI-H23 [37]
  CC50: 94.5 µM
NCI-H522 [38]
  CC50: > 100 µM
A498 [39]
  CC50: > 100 µM
OVCAR-4
  CC50: > 100 µM
OVCAR-8 [40]
  CC50: > 100 µM
